Test results reported in patent publication US9370507B2, “Pyridonyl guanidine F1F0-ATPase inhibitors and therapeutic uses thereof” (Lycera Corporation, priority 2010, dated 2016).

Assays:
F1F0-ATPase = target: T1, F1F0-ATPase (Bos taurus, UniProt P13621); assay: Inhibition of F1F0-ATPase activity in synthesizing ATP; type: biochemical; conditions: inhibition of ATP synthesis; read-out: ATP Syn IC50
T1 construct: from tissue
Experimental: (§1) The compounds listed in Table 4 were tested for activity against F1F0-ATPase by measuring the ability of the compounds to inhibit ATP synthesis. In addition, the compounds were assessed for cytotoxicity in Ramos cells Inhibition of F1F0-ATPase activity in synthesizing ATP and cytotoxicity in Ramos cells were measured according to the procedures described in K. M. Johnson et al. Chemistry & Biology 2005, 12, 485-496.

Ramos cells = assay: Cytotoxicity in Ramos cells; type: cell-based; conditions: Homo sapiens, read-out: Ramos Cell EC50
Experimental: as §1

Compound | IC50 (F1F0-ATPase) | EC50 (Ramos cells)
N#Cc1ccccc1S(=O)(=O)Nc1cccc(NC(=NC(=O)c2ccc(Cl)cc2)Nc2cc(F)cc(Cl)c2)n1 [Compound A-142] | < 10 µM | < 10 µM
O=C(/N=C(\Nc1cccc(O)n1)NC1CCCOC1)c1ccc(F)c(F)c1 (stereo not shown) [Compound A-99] | > 10 µM | > 10 µM
O=C(/N=C(/NCc1ccc(C(F)(F)F)cc1)Nc1cccc(O)n1)c1ccc(C(F)(F)F)cc1 [Compound A-34] | < 10 µM | < 10 µM
O=C(/N=C(/NCc1cc(F)c(F)c(F)c1)Nc1cccc(O)n1)c1ccc(C(F)(F)F)cc1 [Compound A-37] | < 10 µM | < 10 µM
CC(C)(C)CN/C(=N/C(=O)c1ccc(Cl)cc1)Nc1cccc(NS(=O)(=O)CC(F)(F)F)n1 [Compound A-134] | < 10 µM | < 10 µM
O=C(/N=C(/NCc1cccc(C(F)(F)F)c1)Nc1cccc(O)n1)c1ccc(C(F)(F)F)cc1 [Compound A-33] | < 10 µM | < 10 µM
CC1(N/C(=N\C(=O)c2ccc(C(F)(F)F)cc2)Nc2cccc(O)n2)CCC1 [Compound A-47] | < 10 µM | < 10 µM
O=C(/N=C(/NCc1cc(F)c(F)c(F)c1)Nc1cccc(O)n1)c1ccc(Cl)cc1 [Compound A-60] | < 10 µM | > 10 µM
CC(C)(C)N/C(=N\C(=O)c1ccc(F)c(F)c1)Nc1cccc(O)n1 [Compound A-45] | < 10 µM | < 10 µM
CCOC(=O)Nc1cccc(N/C(=N\C(=O)c2ccc(F)c(F)c2)Nc2cccc(C(F)(F)F)c2)n1 [Compound A-111] | > 10 µM | > 10 µM
Nc1cccc(N/C(=N\C(=O)c2ccc(F)c(F)c2)Nc2cccc(C(F)(F)F)c2)n1 [Compound A-110] | < 10 µM | > 10 µM
O=C(/N=C(\Nc1cccc(O)n1)NC1CC1)c1ccc(C(F)(F)F)cc1 [Compound A-48] | < 10 µM | > 10 µM
O=C(/N=C(/NCc1ccc(F)cc1Cl)Nc1cccc(O)n1)c1ccc(Cl)cc1 [Compound A-81] | < 10 µM | < 10 µM
CC(NC(=NC(=O)c1ccc(C(F)(F)F)cc1)Nc1cccc(O)n1)c1ccc(Cl)cc1 (stereo not shown) [Compound A-69] | < 10 µM | < 10 µM
O=C(/N=C(/NCC(F)(F)F)Nc1cccc(NS(=O)(=O)CC(F)(F)F)n1)c1ccc(Cl)cc1 [Compound A-125] | < 10 µM | < 10 µM
O=C(/N=C(/NCc1ccc(F)c(F)c1)Nc1cccc(O)n1)c1ccc(C(F)(F)F)cc1 [Compound A-36] | < 10 µM | < 10 µM
O=C(/N=C(/NCc1ccccc1Cl)Nc1cccc(O)n1)c1ccc(F)c(F)c1 [Compound A-71] | < 10 µM | < 10 µM
CC(C)(C)CN/C(=N/C(=O)c1ccc(Cl)cc1)Nc1cccc(NC(=O)C(C)(C)C)n1 [Compound A-139] | > 10 µM | > 10 µM
Cc1noc(C)c1S(=O)(=O)Nc1cccc(N/C(=N\C(=O)c2ccc(Cl)cc2)NCc2ccc(Cl)cc2F)n1 [Compound A-146] | < 10 µM | < 10 µM
CC(C)(C)N/C(=N/C(=O)c1ccc(C(F)(F)F)cc1)Nc1cccc(NS(=O)(=O)CC(F)(F)F)n1 [Compound A-129] | < 10 µM | < 10 µM
Cc1cc(CN/C(=N/C(=O)c2ccc(Cl)c(F)c2)Nc2cccc(O)n2)no1 [Compound A-55] | < 10 µM | > 10 µM
O=C(/N=C(\Nc1cccc(O)n1)NC1CCCC1)c1ccc(C(F)(F)F)cc1 [Compound A-89] | < 10 µM | < 10 µM

Compound | IC50 (F1F0-ATPase) | EC50 (Ramos cells)
O=C(/N=C(/NCc1ccccc1C(F)(F)F)Nc1cccc(O)n1)c1ccc(F)c(F)c1 [Compound A-73] | < 10 µM | < 10 µM
CS(=O)(=O)Nc1cccc(N/C(=N\C(=O)c2ccc(Cl)c(F)c2)NCc2ccc(F)c(Cl)c2)n1 [Compound A-121] | < 10 µM | < 10 µM
O=C(/N=C(/NCc1ccccc1C(F)(F)F)Nc1cccc(NS(=O)(=O)CC(F)(F)F)n1)c1ccc(C(F)(F)F)cc1 [Compound A-116] | < 10 µM | < 10 µM
O=C(/N=C(\Nc1cccc(O)n1)NC1CCOCC1)c1ccc(F)c(F)c1 [Compound A-98] | > 10 µM | > 10 µM
O=C(/N=C(/NCc1cccc(Cl)c1)Nc1cccc(O)n1)c1ccc(Cl)cc1 [Compound A-88] | < 10 µM | < 10 µM
O=C(/N=C(\Nc1cccc(O)n1)NC1CCC(F)(F)CC1)c1ccc(F)c(F)c1 [Compound A-31] | < 10 µM | < 10 µM
CC(C)N/C(=N/C(=O)c1ccc(F)c(F)c1)Nc1cccc(O)n1 [Compound A-107] | < 10 µM | > 10 µM
CC1(N/C(=N/C(=O)c2ccc(C(F)(F)F)cc2)Nc2cccc(O)n2)CCCC1 [Compound A-61] | < 10 µM | < 10 µM
O=C(/N=C(/NCc1ccc(F)c(F)c1)Nc1cccc(O)n1)c1ccc(Cl)cc1 [Compound A-80] | < 10 µM | < 10 µM
O=C(N/C(=N\c1cccc(O)n1)Nc1cccc(Cl)c1)c1ccc(C(F)(F)F)cc1 [Compound A-7] | < 10 µM | < 10 µM
O=C(/N=C(/NCc1c(F)cc(F)cc1F)Nc1cccc(O)n1)c1ccc(C(F)(F)F)cc1 [Compound A-38] | < 10 µM | < 10 µM
CC1(N/C(=N\C(=O)c2ccc(C(F)(F)F)cc2)Nc2cccc(O)n2)CC1 [Compound A-46] | < 10 µM | < 10 µM
O=C(/N=C(\Nc1cccc(O)n1)NC1CCCCCC1)c1ccc(C(F)(F)F)cc1 [Compound A-39] | < 10 µM | < 10 µM
O=C(/N=C(/NCc1ccc(Cl)cc1F)Nc1cccc(O)n1)c1ccc(Cl)cc1 [Compound A-84] | < 10 µM | > 10 µM
CC(C)(C)N/C(=N/C(=O)c1ccc(F)c(F)c1)Nc1cccc(NS(=O)(=O)CC(F)(F)F)n1 [Compound A-128] | < 10 µM | < 10 µM
O=C(/N=C(\Nc1cccc(O)n1)NC1CCCC1)c1ccc(Cl)cc1 [Compound A-101] | < 10 µM | > 10 µM
CC(C)(N/C(=N\C(=O)c1ccc(Cl)cc1)Nc1cccc(O)n1)C(F)(F)F [Compound A-57] | < 10 µM | < 10 µM
O=C(/N=C(/Nc1cccc(Cl)c1)Nc1cccc(O)n1)c1cccc(Cl)c1 [Compound A-19] | < 10 µM | < 10 µM
O=C(/N=C(/NCC1CC1)Nc1cccc(O)n1)c1ccc(C(F)(F)F)cc1 [Compound A-40] | < 10 µM | < 10 µM
CCS(=O)(=O)Nc1cccc(N/C(=N\C(=O)c2ccc(Cl)cc2)Nc2cc(F)cc(Cl)c2)n1 [Compound A-130] | < 10 µM | < 10 µM
CS(=O)(=O)Nc1cccc(N/C(=N\C(=O)c2ccc(C(F)(F)F)cc2)NCc2ccccc2C(F)(F)F)n1 [Compound A-114] | < 10 µM | < 10 µM

Further lines, with some results ahead:

IC50 (F1F0-ATPase) | Compound | EC50 (Ramos cells)
< 10 µM | O=C(/N=C(/NCc1cccc(C(F)(F)F)c1)Nc1cccc(O)n1)c1ccc(F)c(F)c1 [Compound A-74] | < 10 µM
< 10 µM | O=C(/N=C(/Nc1cccc(C(F)(F)F)c1)Nc1cccc(O)n1)c1ccc(Cl)cc1 [Compound A-15] | < 10 µM
< 10 µM | O=C(/N=C(\Nc1cccc(O)n1)Nc1ccc(F)cc1C1CC1)c1ccc(C(F)(F)F)cc1 [Compound A-12] | < 10 µM
< 10 µM | CC(=O)N(Cc1ccc(F)c(Cl)c1)/C(=N/C(=O)c1ccc(C(F)(F)F)cc1)Nc1cccc(O)n1 [Compound A-65] | < 10 µM
< 10 µM | O=C(/N=C(\Nc1cccc(O)n1)Nc1ccc(F)cc1C1CC1)c1ccc(F)c(F)c1 [Compound A-11] | < 10 µM
< 10 µM | COCC(C)N/C(=N/C(=O)c1ccc(C(F)(F)F)cc1)Nc1cccc(O)n1 (stereo not shown) [Compound A-94] | > 10 µM
< 10 µM | O=C(N=C(Nc1cccc(O)n1)NC1CCC(C(F)(F)F)CC1)c1ccc(Cl)cc1 (stereo not shown) [Compound A-64] | < 10 µM
< 10 µM | CCC(C)(C)N/C(=N/C(=O)c1ccc(F)c(F)c1)Nc1cccc(O)n1 [Compound A-96] | < 10 µM
< 10 µM | CCOC(=O)Nc1cccc(N/C(=N\C(=O)c2ccc(F)c(F)c2)NCc2ccc(Cl)cc2F)n1 [Compound A-112] | > 10 µM
< 10 µM | O=C(/N=C(/NCc1ccc(C(F)(F)F)cc1)Nc1cccc(O)n1)c1ccc(F)c(F)c1 [Compound A-35] | < 10 µM
< 10 µM | CC(=O)Nc1cccc(NC(=NC(=O)c2ccc(Cl)cc2)Nc2cc(F)cc(Cl)c2)n1 [Compound A-140] | > 10 µM
< 10 µM | O=C(/N=C(/Nc1cccc(C(F)(F)F)c1)Nc1cccc(O)n1)c1cccc(Cl)c1 [Compound A-16] | < 10 µM
< 10 µM | O=C(/N=C(\Nc1cccc(O)n1)Nc1ccccc1C1CC1)c1ccc(C(F)(F)F)cc1 [Compound A-6] | < 10 µM
< 10 µM | C[C@@H](N/C(=N/C(=O)c1ccc(C(F)(F)F)cc1)Nc1cccc(O)n1)C1CCCCC1 [Compound A-91] | < 10 µM
< 10 µM | O=C(N/C(=N\c1cccc(O)n1)Nc1cc(F)cc(Cl)c1)c1ccc(Cl)cc1 [Compound A-8] | < 10 µM
< 10 µM | O=C(/N=C(/Nc1cc(F)cc(Cl)c1)Nc1cccc(O)n1)c1ccc(Cl)c(F)c1 [Compound A-23] | < 10 µM
< 10 µM | C[C@@H](N/C(=N/C(=O)c1ccc(Cl)cc1)Nc1cccc(O)n1)C1CCCCC1 [Compound A-103] | < 10 µM
< 10 µM | Cc1cc(CN/C(=N/C(=O)c2ccc(C(F)(F)F)cc2)Nc2cccc(O)n2)no1 [Compound A-53] | < 10 µM
> 10 µM | O=C(/N=C(/NCc1cc(F)c(F)c(F)c1)Nc1cccc(O)n1)c1ccc(F)c(F)c1 [Compound A-75] | > 10 µM
